Experimental findings from ChEMBL document CHEMBL4229365, “Synthesis of novel ring-contracted artemisinin dimers with potent anticancer activities” (Eur J Med Chem, 2018) are described below.

The test system of experiment [1] is A-375. Put plainly: Antiproliferative activity against human A375 cells after 72 hrs by CCK-8 assay. In kind it is functional, cell-based. As to conditions: A-375, 72 h.
Experiment [2] has as its system A549. Nature of the experiment: Antiproliferative activity against human A549 cells after 72 hrs by CCK-8 assay. Format: functional, cell-based. The following applies: A549, 72 h.
The subject of experiment [3] is SH-SY5Y. Nature of the experiment: Antiproliferative activity against human SH-SY5Y cells after 72 hrs by CCK-8 assay. Format: functional, cell-based.
The subject of experiment [4] is HCT-116. Nature of the experiment: Antiproliferative activity against human HCT116 cells after 72 hrs by CCK-8 assay. In kind it is functional, cell-based. As to conditions: HCT-116, 72 h.
Experiment [5] has as its system PC-12. Put plainly: Antiproliferative activity against rat PC12 cells after 72 hrs by CCK-8 assay. Format: functional, cell-based. The following applies: PC-12, 72 h.
Experiment [6] deals with L02. Put plainly: Antiproliferative activity against human L02 cells after 72 hrs by CCK-8 assay. In kind it is cell-based. The following applies: L02, 72 h.

Molecules are shown by their SMILES. pIC50: −log10 of the molar value. Where only a bound is given, the exact number is not on record here.

`C[C@@H]1CC[C@@H]2[C@]34OO[C@](C)(CC[C@@H]13)O[C@H]4O[C@]2(C)C(=O)Nc1ccc(NC(=O)[C@@]2(C)O[C@@H]3O[C@@]4(C)CC[C@H]5[C@H](C)CC[C@@H]2[C@@]35OO4)cc1`: the pIC50 in experiment [1], in experiment [2], in experiment [3], in experiment [4] and in experiment [5] was less than 4.30 in each case.
With `C[C@@H]1CC[C@@H]2[C@]34OO[C@](C)(CC[C@@H]13)O[C@H]4O[C@]2(C)C(=O)OCC(C)(C)COC(=O)[C@@]1(C)O[C@@H]2O[C@@]3(C)CC[C@H]4[C@H](C)CC[C@@H]1[C@@]24OO3`, the pIC50 in experiment [1], in experiment [2], in experiment [3], in experiment [4] and in experiment [5] was less than 4.30 each time.
`C[C@@H]1CC[C@@H]2[C@]34OO[C@](C)(CC[C@@H]13)O[C@H]4O[C@]2(C)C(=O)NCCCCCCNC(=O)[C@@]1(C)O[C@@H]2O[C@@]3(C)CC[C@H]4[C@H](C)CC[C@@H]1[C@@]24OO3`: the negative logarithm of the IC50 (pIC50) was 4.45 in experiment [1]; less than 4.30 in experiment [2]; less than 4.30 in experiment [3]; less than 4.30 in experiment [4]; less than 4.30 in experiment [5].
For the compound `C[C@@H]1CC[C@@H]2[C@]34OO[C@](C)(CC[C@@H]13)O[C@H]4O[C@]2(C)C(=O)OCCCCCOC(=O)[C@@]1(C)O[C@@H]2O[C@@]3(C)CC[C@H]4[C@H](C)CC[C@@H]1[C@@]24OO3`, the pIC50 in experiment [1] was less than 4.30; in experiment [2], 4.92; in experiment [3], 5.03; in experiment [4] it was less than 4.30; in experiment [5], less than 4.30.
For the compound `C[C@@H]1CC[C@@H]2[C@]34OO[C@](C)(CC[C@@H]13)O[C@H]4O[C@]2(C)C(=O)OCCCCCCCCCCCCOC(=O)[C@@]1(C)O[C@@H]2O[C@@]3(C)CC[C@H]4[C@H](C)CC[C@@H]1[C@@]24OO3`, the pIC50 in experiment [1], in experiment [2], in experiment [3], in experiment [4] and in experiment [5] was less than 4.30 in each case.
In the case of `C[C@@H]1CC[C@@H]2[C@]34OO[C@](C)(CC[C@@H]13)O[C@H]4O[C@]2(C)C(=O)Nc1cccc(NC(=O)[C@@]2(C)O[C@@H]3O[C@@]4(C)CC[C@H]5[C@H](C)CC[C@@H]2[C@@]35OO4)c1`, the negative logarithm of the IC50 (pIC50) in experiment [1], in experiment [2], in experiment [3], in experiment [4] and in experiment [5] was less than 4.30 throughout.
`CCOP(=O)(OC[C@@]1(C)O[C@@H]2O[C@@]3(C)CC[C@H]4[C@H](C)CC[C@@H]1[C@@]24OO3)OC[C@@]1(C)O[C@@H]2O[C@@]3(C)CC[C@H]4[C@H](C)CC[C@@H]1[C@@]24OO3`: the pIC50 in experiment [1] was 5.02; in experiment [2], 4.81; in experiment [4], 4.83; in experiment [5] it was 5.26; in experiment [6] it was 4.47.
Turning to `C[C@@H]1CC[C@@H]2[C@]34OO[C@](C)(CC[C@@H]13)O[C@H]4O[C@]2(C)C(=O)OCCOC(=O)[C@@]1(C)O[C@@H]2O[C@@]3(C)CC[C@H]4[C@H](C)CC[C@@H]1[C@@]24OO3`, the negative logarithm of the IC50 (pIC50) in experiment [1], in experiment [2], in experiment [3], in experiment [4] and in experiment [5] was less than 4.30 in each case.
For the compound `C[C@@H]1CC[C@@H]2[C@]34OO[C@](C)(CC[C@@H]13)O[C@H]4O[C@]2(C)C(=O)NCCCCNC(=O)[C@@]1(C)O[C@@H]2O[C@@]3(C)CC[C@H]4[C@H](C)CC[C@@H]1[C@@]24OO3`, the negative-log IC50 (pIC50) in experiment [1] was less than 4.30; in experiment [2], less than 4.30; in experiment [3], less than 4.30; in experiment [4], less than 4.30; in experiment [5] it was 4.60.
